Six molecules from ChEMBL document CHEMBL1909046, “DrugMatrix in vitro pharmacology data” can be followed below.

Chain of Cannabinoid receptor 1 (P21554 whole entry): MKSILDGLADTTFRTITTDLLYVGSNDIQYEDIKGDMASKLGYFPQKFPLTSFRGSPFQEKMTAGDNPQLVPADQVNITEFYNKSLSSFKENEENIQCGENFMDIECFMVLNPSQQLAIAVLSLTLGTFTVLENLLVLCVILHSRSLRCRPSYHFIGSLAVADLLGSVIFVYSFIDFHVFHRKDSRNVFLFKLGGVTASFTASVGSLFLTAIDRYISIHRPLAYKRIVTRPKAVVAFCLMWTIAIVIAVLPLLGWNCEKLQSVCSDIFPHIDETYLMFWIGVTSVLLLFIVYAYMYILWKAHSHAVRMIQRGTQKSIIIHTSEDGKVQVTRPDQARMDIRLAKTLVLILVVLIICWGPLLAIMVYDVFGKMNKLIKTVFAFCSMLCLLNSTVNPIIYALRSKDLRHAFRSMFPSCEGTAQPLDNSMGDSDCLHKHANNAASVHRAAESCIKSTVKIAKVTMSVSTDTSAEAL

The target of the first assay is Mu-type opioid receptor (Homo sapiens, UniProt P35372). Put plainly: DRUGMATRIX: Opiate mu (OP3, MOP) radioligand binding (ligand: [3H] Diprenorphine). In kind it is cell membranes, CHO-K1, Membrane. The following applies: cho-k1; Not Active = under 50% inhibition at 10 µM.
Chain of Mu-type opioid receptor (P35372 whole entry): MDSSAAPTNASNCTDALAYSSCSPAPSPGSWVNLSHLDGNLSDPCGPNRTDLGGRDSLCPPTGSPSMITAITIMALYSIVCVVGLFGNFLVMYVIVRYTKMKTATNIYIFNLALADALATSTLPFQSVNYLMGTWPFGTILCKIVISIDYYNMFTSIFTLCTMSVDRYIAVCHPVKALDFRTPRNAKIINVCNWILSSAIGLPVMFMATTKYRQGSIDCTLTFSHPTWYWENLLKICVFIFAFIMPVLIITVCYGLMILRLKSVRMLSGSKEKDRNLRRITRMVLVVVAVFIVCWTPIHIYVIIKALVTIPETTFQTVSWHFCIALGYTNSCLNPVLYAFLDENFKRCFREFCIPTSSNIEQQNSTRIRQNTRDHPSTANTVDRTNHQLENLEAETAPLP
As to `Clc1ccc2c(c1)C(N1CCNCC1)=Nc1ccccc1O2` [AMOXAPINE], the IC50 result is recorded as “Not Active”.
`CN1CCC(=C2c3ccccc3C=Cc3ccccc32)CC1` [CYPROHEPTADINE]: the IC50 entry was “Not Active”.
Consider `CC(C)NCC(O)COc1cccc2ccccc12` (stereo not given) [PROPRANOLOL], for which the IC50 entry was “Not Active”.

A further assay deals with Mitogen-activated protein kinase 3 (Homo sapiens, UniProt P27361). Kind of assay: DRUGMATRIX: Protein Serine/Threonine Kinase, ERK1 enzyme inhibition (substrate: Myelin Basic Protein). On the set-up: species or system Escherichia coli. The note with it: Not Active = under 50% inhibition at 10 µM.
Chain of Mitogen-activated protein kinase 3 (P27361 whole entry): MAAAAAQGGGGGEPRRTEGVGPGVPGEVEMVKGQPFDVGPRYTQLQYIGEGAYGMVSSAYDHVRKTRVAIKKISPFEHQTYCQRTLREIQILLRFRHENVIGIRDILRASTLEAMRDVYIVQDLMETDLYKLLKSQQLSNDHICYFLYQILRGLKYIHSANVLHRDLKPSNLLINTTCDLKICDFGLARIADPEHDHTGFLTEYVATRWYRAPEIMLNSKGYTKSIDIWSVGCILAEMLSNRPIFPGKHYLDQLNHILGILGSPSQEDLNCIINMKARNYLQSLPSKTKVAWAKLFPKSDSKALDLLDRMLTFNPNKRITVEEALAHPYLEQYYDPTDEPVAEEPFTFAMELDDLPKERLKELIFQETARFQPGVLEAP
For `Clc1ccc2c(c1)C(N1CCNCC1)=Nc1ccccc1O2` [AMOXAPINE], the IC50 result is “Not Active”.
For the molecule `COc1cc2c(c(OC)c1OC)-c1ccc(OC)c(=O)cc1[C@@H](NC(C)=O)CC2` [COLCHICINE], the IC50 entry was “Not Active”.
`CN1CCC(=C2c3ccccc3C=Cc3ccccc32)CC1` [CYPROHEPTADINE]: the IC50 result is recorded as “Not Active”.
Take `CC/C(=C(/CC)c1ccc(O)cc1)c1ccc(O)cc1` [DIETHYLSTILBESTROL]: the IC50 result is “Not Active”.
Turning to `C=CCN1CC[C@]23c4c5ccc(O)c4O[C@H]2C(=O)CC[C@@]3(O)[C@H]1C5` [NALOXONE], the IC50 entry was “Not Active”.
`CC(C)NCC(O)COc1cccc2ccccc12` (stereo not given) [PROPRANOLOL]: the IC50 result was “Not Active”.

The target in another assay is T1, Leukotriene C4 synthase (Cavia porcellus, UniProt A6XA80).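 Note: enzyme inhibition assay of leukotriene C4 synthase, using LTA4 as the substrate; in other assays of this panel Not Active means under 50% inhibition at 10 µM.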
T1 sequence (A6XA80 whole entry): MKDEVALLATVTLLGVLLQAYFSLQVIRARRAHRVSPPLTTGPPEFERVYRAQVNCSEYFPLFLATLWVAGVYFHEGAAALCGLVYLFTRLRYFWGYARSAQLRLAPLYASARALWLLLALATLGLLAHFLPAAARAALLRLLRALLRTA
The format is tissue-based, Lung.
Conditions: not given
As to `Clc1ccc2c(c1)C(N1CCNCC1)=Nc1ccccc1O2` [AMOXAPINE], the IC50 entry is “Not Active”.
For the molecule `COc1cc2c(c(OC)c1OC)-c1ccc(OC)c(=O)cc1[C@@H](NC(C)=O)CC2` [COLCHICINE], the IC50 entry is recorded as “Not Active”.
For the molecule `CN1CCC(=C2c3ccccc3C=Cc3ccccc32)CC1` [CYPROHEPTADINE], the IC50 result is reported as “Not Active”.
With `CC/C(=C(/CC)c1ccc(O)cc1)c1ccc(O)cc1` [DIETHYLSTILBESTROL], the IC50 result is reported as “Not Active”.
As to `C=CCN1CC[C@]23c4c5ccc(O)c4O[C@H]2C(=O)CC[C@@]3(O)[C@H]1C5` [NALOXONE], the IC50 entry was “Not Active”.
Take `CC(C)NCC(O)COc1cccc2ccccc12` (stereo not given) [PROPRANOLOL]: the IC50 entry is listed as “Not Active”.

Another assay has as its target Cannabinoid receptor 1 (Homo sapiens, UniProt P21554). In kind it is cell membranes, Chem-1, Membrane. The following applies: chem-1. Note: in other assays of this panel Not Active means under 50% inhibition at 10 µM.
In the case of `Clc1ccc2c(c1)C(N1CCNCC1)=Nc1ccccc1O2` [AMOXAPINE], the IC50 entry was “Not Active”.
Turning to `COc1cc2c(c(OC)c1OC)-c1ccc(OC)c(=O)cc1[C@@H](NC(C)=O)CC2` [COLCHICINE], the IC50 entry is given as “Not Active”.
The same measure, in the same setting: the same measure for `CN1CCC(=C2c3ccccc3C=Cc3ccccc32)CC1` [CYPROHEPTADINE]: “Not Active”.
As for `CC/C(=C(/CC)c1ccc(O)cc1)c1ccc(O)cc1` [DIETHYLSTILBESTROL], the IC50 entry is “Not Active”.
For `C=CCN1CC[C@]23c4c5ccc(O)c4O[C@H]2C(=O)CC[C@@]3(O)[C@H]1C5` [NALOXONE], the IC50 entry is recorded as “Not Active”.
As to `CC(C)NCC(O)COc1cccc2ccccc12` (stereo not given) [PROPRANOLOL], the IC50 result was “Not Active”.

The target of another assay is Platelet-activating factor receptor (Homo sapiens, UniProt P25105). The format is tissue-based. Note: in other assays of this panel Not Active means under 50% inhibition at 10 µM.
Chain of Platelet-activating factor receptor (P25105 whole entry): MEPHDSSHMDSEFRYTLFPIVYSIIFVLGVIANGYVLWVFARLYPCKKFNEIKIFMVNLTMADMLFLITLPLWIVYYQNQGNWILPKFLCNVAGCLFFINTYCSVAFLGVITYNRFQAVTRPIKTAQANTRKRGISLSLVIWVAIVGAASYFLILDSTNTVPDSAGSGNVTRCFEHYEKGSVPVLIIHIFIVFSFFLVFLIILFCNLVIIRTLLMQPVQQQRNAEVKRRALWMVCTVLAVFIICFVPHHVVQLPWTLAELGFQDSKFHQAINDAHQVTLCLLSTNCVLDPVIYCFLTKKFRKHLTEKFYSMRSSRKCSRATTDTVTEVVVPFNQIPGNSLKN
Conditions: not given
As to `Clc1ccc2c(c1)C(N1CCNCC1)=Nc1ccccc1O2` [AMOXAPINE], the IC50 result is “Not Active”.
As for `COc1cc2c(c(OC)c1OC)-c1ccc(OC)c(=O)cc1[C@@H](NC(C)=O)CC2` [COLCHICINE], the IC50 result is listed as “Not Active”.
`CN1CCC(=C2c3ccccc3C=Cc3ccccc32)CC1` [CYPROHEPTADINE]: the IC50 entry was “Not Active”.
For the molecule `CC/C(=C(/CC)c1ccc(O)cc1)c1ccc(O)cc1` [DIETHYLSTILBESTROL], the IC50 result is on record as “Not Active”.
Consider `C=CCN1CC[C@]23c4c5ccc(O)c4O[C@H]2C(=O)CC[C@@]3(O)[C@H]1C5` [NALOXONE], for which the IC50 result is reported as “Not Active”.
`CC(C)NCC(O)COc1cccc2ccccc12` (stereo not given) [PROPRANOLOL]: the IC50 entry is listed as “Not Active”.

The target of a further assay is T2, Receptor-type tyrosine-protein phosphatase C (Homo sapiens, UniProt P08575).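 Note: inhibition of CD45 enzyme activity measured using DiFMUP as substrate; in other assays of this panel Not Active means under 50% inhibition at 10 µM.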
T2 sequence (P08575 whole entry): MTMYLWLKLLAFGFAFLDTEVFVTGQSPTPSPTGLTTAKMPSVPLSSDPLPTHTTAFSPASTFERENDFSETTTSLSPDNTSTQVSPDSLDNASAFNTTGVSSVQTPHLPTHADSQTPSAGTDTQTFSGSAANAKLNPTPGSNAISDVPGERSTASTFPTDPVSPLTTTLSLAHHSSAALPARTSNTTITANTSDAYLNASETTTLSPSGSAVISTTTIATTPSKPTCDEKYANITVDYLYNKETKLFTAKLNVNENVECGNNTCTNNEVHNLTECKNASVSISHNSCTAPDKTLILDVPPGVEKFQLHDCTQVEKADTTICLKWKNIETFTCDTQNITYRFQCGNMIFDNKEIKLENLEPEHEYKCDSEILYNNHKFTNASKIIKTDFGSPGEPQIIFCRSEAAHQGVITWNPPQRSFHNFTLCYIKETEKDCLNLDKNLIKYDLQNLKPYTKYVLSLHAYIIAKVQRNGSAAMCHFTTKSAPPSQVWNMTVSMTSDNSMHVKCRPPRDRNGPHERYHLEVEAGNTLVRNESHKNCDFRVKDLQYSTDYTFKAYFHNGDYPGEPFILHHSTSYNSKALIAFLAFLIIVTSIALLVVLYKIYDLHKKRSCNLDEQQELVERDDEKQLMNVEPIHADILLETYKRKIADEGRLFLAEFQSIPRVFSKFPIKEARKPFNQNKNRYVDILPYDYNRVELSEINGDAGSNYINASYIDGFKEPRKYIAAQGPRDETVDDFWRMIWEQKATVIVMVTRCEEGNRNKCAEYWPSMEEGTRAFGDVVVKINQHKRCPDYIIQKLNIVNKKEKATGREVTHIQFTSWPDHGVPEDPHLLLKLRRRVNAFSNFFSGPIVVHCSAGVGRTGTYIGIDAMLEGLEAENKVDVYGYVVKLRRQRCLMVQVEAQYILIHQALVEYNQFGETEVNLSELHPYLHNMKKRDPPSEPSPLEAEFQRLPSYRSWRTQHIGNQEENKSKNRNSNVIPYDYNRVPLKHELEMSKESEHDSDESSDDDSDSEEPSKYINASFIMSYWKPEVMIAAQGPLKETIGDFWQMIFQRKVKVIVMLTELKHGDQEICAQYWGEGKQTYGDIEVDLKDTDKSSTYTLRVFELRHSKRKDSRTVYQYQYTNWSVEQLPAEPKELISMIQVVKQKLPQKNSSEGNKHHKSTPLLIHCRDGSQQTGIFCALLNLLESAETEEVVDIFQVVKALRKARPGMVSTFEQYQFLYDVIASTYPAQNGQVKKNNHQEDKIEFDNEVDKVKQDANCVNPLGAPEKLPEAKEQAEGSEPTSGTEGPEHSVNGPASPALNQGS
On the set-up: species or system Escherichia coli.
Conditions: not given
`Clc1ccc2c(c1)C(N1CCNCC1)=Nc1ccccc1O2` [AMOXAPINE]: the IC50 entry was “Not Active”.
On the same count and under the same terms, the same measure for `COc1cc2c(c(OC)c1OC)-c1ccc(OC)c(=O)cc1[C@@H](NC(C)=O)CC2` [COLCHICINE]: “Not Active”; for `CN1CCC(=C2c3ccccc3C=Cc3ccccc32)CC1` [CYPROHEPTADINE]: “Not Active”.
In the case of `CC/C(=C(/CC)c1ccc(O)cc1)c1ccc(O)cc1` [DIETHYLSTILBESTROL], the IC50 result is listed as “Not Active”.
Same read-out and setting: in the case of `C=CCN1CC[C@]23c4c5ccc(O)c4O[C@H]2C(=O)CC[C@@]3(O)[C@H]1C5` [NALOXONE] it was “Not Active”; in that of `CC(C)NCC(O)COc1cccc2ccccc12` (stereo not given) [PROPRANOLOL], “Not Active”.

A further assay deals with T3, D(4) dopamine receptor (Homo sapiens, UniProt P21917).
T3 sequence (P21917 whole entry): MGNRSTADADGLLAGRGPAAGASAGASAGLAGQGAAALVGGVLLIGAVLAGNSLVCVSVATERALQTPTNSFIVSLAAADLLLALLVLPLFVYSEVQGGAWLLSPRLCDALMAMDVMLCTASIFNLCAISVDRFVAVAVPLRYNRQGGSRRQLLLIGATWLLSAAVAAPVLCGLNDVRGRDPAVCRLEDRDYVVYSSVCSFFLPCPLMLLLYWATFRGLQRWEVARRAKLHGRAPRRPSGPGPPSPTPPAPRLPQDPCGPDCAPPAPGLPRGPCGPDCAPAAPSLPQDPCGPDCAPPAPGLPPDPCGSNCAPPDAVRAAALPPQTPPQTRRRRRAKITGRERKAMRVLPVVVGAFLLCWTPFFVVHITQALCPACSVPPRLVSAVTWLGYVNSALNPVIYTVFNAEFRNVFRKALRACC
Put plainly: DRUGMATRIX: Dopamine D4.2 radioligand binding (ligand: [3H] Spiperone). The following applies: cho-k1; Not Active = under 50% inhibition at 10 µM. The format is cell membranes, Membrane.
Consider `Clc1ccc2c(c1)C(N1CCNCC1)=Nc1ccccc1O2` [AMOXAPINE], for which the IC50 entry was “Not Active”.
For the molecule `COc1cc2c(c(OC)c1OC)-c1ccc(OC)c(=O)cc1[C@@H](NC(C)=O)CC2` [COLCHICINE], the IC50 result was “Not Active”.
Turning to `CN1CCC(=C2c3ccccc3C=Cc3ccccc32)CC1` [CYPROHEPTADINE], the IC50 result is reported as “Not Active”.
For the molecule `CC/C(=C(/CC)c1ccc(O)cc1)c1ccc(O)cc1` [DIETHYLSTILBESTROL], the IC50 result was “Not Active”.
The same measure, in the same setting: the same measure for `C=CCN1CC[C@]23c4c5ccc(O)c4O[C@H]2C(=O)CC[C@@]3(O)[C@H]1C5` [NALOXONE]: “Not Active”; for `CC(C)NCC(O)COc1cccc2ccccc12` (stereo not given) [PROPRANOLOL]: “Not Active”.

The target of the next assay is T4, C-X-C chemokine receptor type 1 (Homo sapiens, UniProt P25024). Note: in other assays of this panel Not Active means under 50% inhibition at 10 µM.
T4 sequence (P25024 whole entry): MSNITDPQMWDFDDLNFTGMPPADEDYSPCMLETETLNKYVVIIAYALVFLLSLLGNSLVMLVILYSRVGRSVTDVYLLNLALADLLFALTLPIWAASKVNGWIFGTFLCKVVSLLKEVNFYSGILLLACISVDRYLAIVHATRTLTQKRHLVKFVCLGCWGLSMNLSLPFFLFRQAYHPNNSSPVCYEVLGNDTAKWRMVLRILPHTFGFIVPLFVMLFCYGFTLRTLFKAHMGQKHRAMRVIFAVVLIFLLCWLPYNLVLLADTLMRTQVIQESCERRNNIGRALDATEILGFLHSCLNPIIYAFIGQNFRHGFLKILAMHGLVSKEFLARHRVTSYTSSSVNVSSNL
Conditions: not given
Consider `Clc1ccc2c(c1)C(N1CCNCC1)=Nc1ccccc1O2` [AMOXAPINE], for which the IC50 result was “Not Active”.
For `COc1cc2c(c(OC)c1OC)-c1ccc(OC)c(=O)cc1[C@@H](NC(C)=O)CC2` [COLCHICINE], the IC50 entry was “Not Active”.
As for `CN1CCC(=C2c3ccccc3C=Cc3ccccc32)CC1` [CYPROHEPTADINE], the IC50 entry was “Not Active”.
The same measure, in the same setting: in the case of `CC/C(=C(/CC)c1ccc(O)cc1)c1ccc(O)cc1` [DIETHYLSTILBESTROL] it was “Not Active”; in that of `C=CCN1CC[C@]23c4c5ccc(O)c4O[C@H]2C(=O)CC[C@@]3(O)[C@H]1C5` [NALOXONE], “Not Active”; in that of `CC(C)NCC(O)COc1cccc2ccccc12` (stereo not given) [PROPRANOLOL], “Not Active”.
